Data taken from ChEMBL document CHEMBL3132808, “Exceptionally strong intermolecular association in hydrophobic DNA minor groove binders and their potential therapeutic consequences” (Medchemcomm, 2013).
Calls of active or inactive are those of the source. The calls are words filed in the database; no cut-off is given here.

Each molecule was assayed on Nucleic Acid (assay: Binding affinity to […] DNA oligomer d(CGATATATCG)2 (unknown origin) minor groove assessed as association constant by NMR).
Assay type: nucleic-acid assay

Row | SMILES | Ka
1 | COc1cccc(/C=C/c2ccc(C(=O)Nc3cc(C(=O)NCCN4CCOCC4)n(C)c3)cc2)c1 | inactive
2 | CC(C)c1sc(NC(=O)c2cc(NC(=O)c3cc(NC(=O)c4cccnc4)cn3C)cn2C)nc1C(=O)NCCCN(C)C | 6.1 ×10⁴ /M
3 | CC(C)c1sc(NC(=O)c2cc(NC(=O)c3cc(NC=O)cn3C)cn2C)nc1C(=O)NCCCN(C)C | inactive
4 | CC(=O)Nc1cn(C)c(C(=O)Nc2cc(C(=O)Nc3nc(C(=O)NCCCN(C)C)c(C(C)C)s3)n(C)c2)n1 | inactive
